Assay results as given in patent US20080027008A1, “Antitumorigenic Drug Combination” (priority 2006, published 2008).

Tested on: Dogs with Lymphoma
Test: Efficacy Study for Treatment of Dogs with Lymphoma
Type: in vivo
Conditions: treatment received population of dogs
Description: Twenty-five (25) dogs of varying sex, weight, breed and age (5.5-14.0 yrs) were entered for the study. […] All dogs entered for study had received prior chemotherapy and enrolled to the study following disease relapse.
All dogs were treated with N-[2-[(4-HYDROXYPHENYL)AMINO]-3-PYRIDYL]-4-METHOXYBENZENESULFONAMIDE at an initial dose of 350 mg/m2 PO QD for 7 days then treated at 350 mg/m2 EOD×21 days. If no significant objective response or doselimiting toxicities were noted after 28 days on therapy, a QD regimen was restarted for 7 days. Otherwise, dogs continued on EOD dosing until study discontinuation.
All dogs were treated with ABT-510 at a dose of 1 mg/kg SQ divided BID starting 24 hours after the first dose of N-[2-[(4-HYDROXYPHENYL)AMINO]-3-PYRIDYL]-4-METHOXYBENZENESULFONAMIDE was administered.
Dogs treated with N-[2-[(4-HYDROXYPHENYL)AMINO]-3-PYRIDYL]-4-METHOXYBENZENESULFONAMIDE and ABT-510 therapy were evaluated at Day 0, Day 7, Day 28 then every 28 days thereafter. Assessment of tumor burden was made based on measurement of target lymph nodes (no more than 3 nodes/animal). The lymph node volume (I×w×h) was calculated for each target lymph node and assessed as a sum of total tumor burden. Standard response endpoints were evaluated based on the criteria below: • Complete response (CR) is defined as disappearance of all clinical evidence of cancer and of any signs related to the cancer. • Partial response (PR) is defined as a 50% or greater decrease in the sum of the products of measurements for representative lesions, without an increase in size of any lesions or appearance of any new lesions. • Minimal response (MR) is defined as a 25% or greater decrease in the sum of the products of measurements for representative lesions, without an increase in size of any lesions or appearance of any new lesions. • Stable disease is defined as no response or a response of less than that defined for partial response or progressive disease without appearance of any new lesions or worsening of clinical signs. • Progressive disease is defined as an unequivocal increase of at least 50% in the size of any measurable lesion or appearance of new lesions.
The Intent-to-Treat population included all 25 dogs enrolled in the study. Five (5) dogs withdrew from the study early due to their inability to receive N-[2-[(4-HYDROXYPHENYL)AMINO]-3-PYRIDYL]-4-METHOXYBENZENESULFONAMIDE and ABT-510 longer than 7 days. Four (4) of these dogs withdrew due to rapid lymphoma progression. One (1) dog withdrew due to owner decision related to side effects while receiving study agents.
The Treatment Received population included dogs who received N-[2-[(4-HYDROXYPHENYL)AMINO]-3-PYRIDYL]-4-METHOXYBENZENESULFONAMIDE and ABT-510 therapy for longer than 7 days. […]

With COc1ccc(S(=O)(=O)Nc2cccnc2Nc2ccc(O)cc2)cc1 [Single Agent, N-[2-[(4-HYDROXYPHENYL)AMINO]-3-PYRIDYL]-4-METHOXYBENZENESULFONAMIDE] the “Response Duration, Mean” value (mean) was “Mean = 65 days”, the “Time to Progression, Mean” value (mean) was “Mean = 21 days” and the “Response Duration, Median” value (median) was “Median = 24 days”. For the same molecule, the “Time to Progression, Median” value (median) was “Median = 18 days”.
